Test results reported in US12084430B2, “Tricyclic urea compounds as JAK2 V617F inhibitors” (Incyte Corporation, priority 2022, dated 2024).

Key:
[1] = system: pSTAT5 signaling in SET-2 cells in whole blood; assay: pSTAT5 SET-2 whole blood MSD assay; assay type: cell-based; conditions: Homo sapiens, pSTAT5, 2 hour, read-out: SET2 WB IC50
Description: Example F. pSTAT5 SET-2 Whole Blood MSD Assay
SET-2 cells shipped from ABS, RPMI1640 medium, Fetal Bovine Serum from Gibco, Phospho-STAT5a,b Whole Cell Lysate Kit from Mesoscale, Retronectin (Recombinant Human Fibronectin Fragment) from TaKaRa, 96 well cell culture plate flat bottom from Corning, lysis buffer from Cell Signaling Technology, and sterile PBS from Gibco. Whole Blood from by BioIVT.
SET-2 cells were cultured in RPMI media with 20% FBS at 37° C. humidified incubator supplied with 5% CO2. On the day of the assay, 40 uL per well of diluted retronectin working solution was added to sterile 96-well clear flat bottom tissue culture plates (1:200 dilution of retronectin in sterile PBS) and incubated at 37 C for 1 hour. After 1 hour, the retronectin working solution was aspirated and SET-2 cells were seeded at 100,000/well in RPMI+20% FBS. Cells were incubated overnight at 37° C. and 5% CO2. The next day, the medium was removed and 40 μL of diluted compounds in serum-free RPMI and whole blood was added to the cells for a 2 hour incubation at 37° C. and 5% CO2. The compound starting concentration is 20 μM and 2.5 fold serial diluted down to 0.21 nM. The whole blood and compound mixture was then aspirated off using the BlueCat plate washer and washed 1× with PBS. Cells were lysed by adding 40 μL of 3× complete lysis buffer and shaken at room temperature for 45-60 minutes (complete lysis buffer consists of Cell Signaling Technology lysis buffer diluted to 3× and supplemented with Mesoscale's protease inhibitor, phosphatase I inhibitor, and phosphatase II inhibitor). The pSTAT5 MSD plates were blocked by adding 150 μL of Blocker A solution per well to the MSD plates and incubated at room temperature with shaking at 400 rpm for one hour or longer. After blocking, plates were washed 3× with 300 μL/well of IX Tris Wash Buffer. After lysis, added 25 μL per well of lysed sample was added to MSD plate and incubated with shaking at 4° C. wrapped in foil overnight. The next day, plates were washed again and 25 μL/well of diluted 1× Detection Antibody Solution, wrapped in foil, and incubated at room temperature with shaking at 400 rpm for 1 hour. Plates were then washed again and lastly, 150 μL/well of 1× Read Buffer T was added to all wells. Plates were analyzed on MSD Discovery within 5 minutes. […] Data analysis was performed in GraphPad Prism using a 4-parameter fit and data was reported as Average±SD.

FLT3 = FLT3 enzymatic assay; assay type: biochemical
Method in brief: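 Kinase reaction at room temperature in HEPES 50 mM pH 7.0 with 10 mM MgCl2, 1 mM DTT: 0.011 nM FLT3, 1 mM ATP, 500 nM biotinylated TK substrate, 0.5% DMSO. After 60 min, HTRF read as 665/620 nm ratio; IC50 from fit of percent control activity versus log concentration.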

[2] = In vitro intrinsic clearance; assay type: in vitro ADME; conditions: human liver microsomes, 1 μM
Method in brief: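 Compound at 1 μM was incubated at 37° C with human liver microsomes (0.5 mg protein/mL) and 2 mM NADPH in pH 7.4 phosphate buffer, sampled at 0–30 min and analysed by LC-MS/MS. CLint was derived from t1/2 of depletion and scaled to human hepatic clearance with the well-stirred model (Q 20 mL·min^−1·kg^−1).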

Structure (SMILES) | IC50 [1] [nM] | Selectivity FLT3/JH2 V617F (FLT3) | h-IntCL [2]
[2H]C([2H])([2H])n1c(=O)n([C@@H]2CC[C@@H](NC(=O)OC)C2)c2c3c(-c4ccc5c(c4)COC5(C)C)c(-c4cn(C([2H])([2H])C([2H])([2H])[2H])nc4F)[nH]c3ncc21 [Example 19, Methyl ((1R,3R)-3-(8-(1,1-dimethyl-1,3-dihydroisobenzofuran-5-yl)-7-(1-(ethyl-d5)-3-fluoro-1H-pyrazol-4-yl)-3-(methyl-d3)-2-oxo-3,6-dihydroimidazo[4,5-d]pyrrolo[2,3-b]pyridin-1(2H)-yl)cyclopentyl)carbamate] | ≤ 2500 | ****** (selectivity of >12500-fold) | ‡ ‡ (h-IntCL of ≥0.7 L/h/kg to ≤1 L/h/kg)
[2H]C([2H])([2H])n1c(=O)n([C@@H]2CC[C@@H](NC(=O)OC)C2)c2c3c(-c4ccc5c(c4)COC5(C)C)c(-c4cn(CC)nc4F)[nH]c3ncc21 [Example 20, Methyl ((1R,3R)-3-(8-(1,1-dimethyl-1,3-dihydroisobenzofuran-5-yl)-7-(1-ethyl-3-fluoro-1H-pyrazol-4-yl)-3-(methyl-d3)-2-oxo-3,6-dihydroimidazo[4,5-d]pyrrolo[2,3-b]pyridin-1(2H)-yl)cyclopentyl)carbamate] | ≤ 2500 | ****** (selectivity of >12500-fold) | ‡ ‡ (h-IntCL of ≥0.7 L/h/kg to ≤1 L/h/kg)
[2H]C([2H])([2H])n1ncc2cc(-c3c(-c4cn(C([2H])(C([2H])([2H])[2H])C([2H])([2H])[2H])nc4F)[nH]c4ncc5c(c34)n([C@@H]3CC[C@@H](NC(=O)OC)C3)c(=O)n5C([2H])([2H])[2H])ccc21 [Example 21, Methyl ((1R,3R)-3-(7-(3-fluoro-1-(propan-2-yl-d7)-1H-pyrazol-4-yl)-3-(methyl-d3)-8-(1-(methyl-d3)-1H-indazol-5-yl)-2-oxo-3,6-dihydroimidazo[4,5-d]pyrrolo[2,3-b]pyridin-1(2H)-yl)cyclopentyl)carbamate] | ≤ 2500 | ****** (selectivity of >12500-fold) | ‡ ‡ (h-IntCL of ≥0.7 L/h/kg to ≤1 L/h/kg)
